One series deals with hAM1 receptor (Homo sapiens, UniProt O60895+Q16602). The experiment in a line: cAMP assay for in vitro receptor activation, hAM1-R. It is filed as cell-based. The settings on record: cAMP assay, hAM1 receptor; read-out: hAM1R EC50. The essentials: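 A subcloned monoclonal line stably expressing hAM1 receptor is thawed and plated at 8000 cells/well. The assay buffer is DPBS with 0.05% casein and 0.5 mM IBMX, and receptor activation is followed by cAMP levels.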

For the next series, the target named is T1, hAMY3 receptor (Homo sapiens, UniProt O60896+P30988).
T1 sequence (P30988 25-474): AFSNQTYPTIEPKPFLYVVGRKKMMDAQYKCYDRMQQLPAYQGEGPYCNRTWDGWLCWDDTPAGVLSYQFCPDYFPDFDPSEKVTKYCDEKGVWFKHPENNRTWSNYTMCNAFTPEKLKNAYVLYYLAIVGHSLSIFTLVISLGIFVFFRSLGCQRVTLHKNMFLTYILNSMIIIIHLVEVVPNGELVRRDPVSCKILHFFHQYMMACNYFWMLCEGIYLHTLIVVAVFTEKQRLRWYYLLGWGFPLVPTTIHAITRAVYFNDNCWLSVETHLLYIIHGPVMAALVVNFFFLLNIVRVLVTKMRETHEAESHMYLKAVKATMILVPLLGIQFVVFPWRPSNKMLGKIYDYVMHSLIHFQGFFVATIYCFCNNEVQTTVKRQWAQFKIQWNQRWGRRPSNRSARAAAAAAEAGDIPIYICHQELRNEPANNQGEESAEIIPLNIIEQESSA
T1 sequence (O60896 24-148 partner): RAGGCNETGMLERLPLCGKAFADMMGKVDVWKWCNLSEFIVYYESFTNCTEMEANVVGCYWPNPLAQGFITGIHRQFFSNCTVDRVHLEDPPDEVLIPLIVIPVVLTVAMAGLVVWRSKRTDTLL
The experiment in a line: cAMP assay for in vitro receptor activation, hAMY3-R. It is filed as cell-based. The conditions noted are these: cAMP assay, hAMY3 receptor; read-out: hAMY3R EC50. The essentials: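 Read-out is TR-FRET cAMP signal, recorded one hour after reagent addition, following 30 min room-temperature stimulation of stable hAMY3 cells with graded compound doses in casein/IBMX (0.5 mM) buffer.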

Series [1] in a line: Physical stability of peptide analogues (Thioflavin T fibrillation). The settings on record: maximum ThT signal normalized between hAMY maximum and buffer background; 40° C., shaking, four days; pH 7 per table title. It is filed as physicochemical. The procedure, abridged: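 Maximum ThT emission at 480 nm, after LOESS smoothing, is given as percent of the span from buffer background to hAMY. Conditions: 50 mM buffer at pH 4 or 7, 4 μM dye, 40 °C, repeated shaking, readings every 10 min for four days.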

pEC50: −log10 of the molar value. Bridge positions count the residues as written; N and C are the ends. Square brackets hold non-standard residues; d marks the D form. Peptide text beside a SMILES is read from it. Hyp = O=C(O)[C@@H]1C[C@@H](O)CN1

hAM1 receptor, sequence (Q16602 23-461): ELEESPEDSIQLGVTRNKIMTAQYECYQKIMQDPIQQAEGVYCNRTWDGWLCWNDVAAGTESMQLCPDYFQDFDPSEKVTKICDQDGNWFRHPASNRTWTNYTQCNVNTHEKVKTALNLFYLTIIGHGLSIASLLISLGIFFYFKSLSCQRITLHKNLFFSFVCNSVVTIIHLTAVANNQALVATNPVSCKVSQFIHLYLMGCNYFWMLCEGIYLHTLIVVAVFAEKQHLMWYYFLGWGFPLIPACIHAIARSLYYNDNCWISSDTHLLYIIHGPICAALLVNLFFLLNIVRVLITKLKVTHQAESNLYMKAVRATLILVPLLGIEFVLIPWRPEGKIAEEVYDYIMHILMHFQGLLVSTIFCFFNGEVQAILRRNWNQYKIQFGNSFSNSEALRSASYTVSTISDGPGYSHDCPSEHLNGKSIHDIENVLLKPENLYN
hAM1 receptor, sequence (O60895 43-175 partner): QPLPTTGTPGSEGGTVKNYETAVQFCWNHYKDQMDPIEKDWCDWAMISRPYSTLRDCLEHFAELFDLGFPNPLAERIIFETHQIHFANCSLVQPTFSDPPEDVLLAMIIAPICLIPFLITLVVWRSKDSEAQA

With `CC[C@H](C)[C@H](NC(=O)[C@H](CCC(N)=O)NC(=O)[C@H](Cc1c[nH]cn1)NC(=O)[C@H](C)NC(=O)[C@H](CC(C)C)NC(=O)[C@H](CCCNC(=N)N)NC(=O)[C@H](CCC(N)=O)NC(=O)[C@@H](NC(=O)[C@@H](NC(=O)[C@@H]1CSSC[C@H](NC(=O)CN)C(=O)N[C@@H](CCCNC(=N)N)C(=O)N[C@@H]([C@@H](C)O)C(=O)NCC(=O)N[C@@H]([C@@H](C)O)C(=O)N1)[C@@H](C)O)C(C)C)C(=O)N[C@@H](Cc1ccc(O)cc1)C(=O)N[C@@H](CCC(N)=O)C(=O)N[C@@H](Cc1ccccc1)C(=O)N[C@H](C(=O)N[C@@H](CC(=O)O)C(=O)N[C@@H](CCCCN)C(=O)N[C@@H](Cc1ccccc1)C(=O)N[C@@H](CCCCN)C(=O)N[C@@H](CC(=O)O)C(=O)N[C@@H](CC(N)=O)C(=O)N[C@H](C(=O)N[C@@H](C)C(=O)N1CCC[C@H]1C(=O)N[C@@H](CCCNC(=N)N)C(=O)N[C@@H](CO)C(=O)N[C@@H](CCCCN)C(=O)N[C@H](C(=O)N[C@@H](CO)C(=O)N1CCC[C@H]1C(=O)N[C@@H](CCC(N)=O)C(=O)N[C@@H](Cc1c[nH]c2ccccc12)C(=O)N1C[C@H](O)C[C@H]1C(N)=O)[C@@H](C)CC)C(C)C)[C@@H](C)O` [compound 185] (H-GCRTGTCTVQRLAHQIYQFTDKFKDNVAPRSKISPQW[Hyp]-NH2; disulfide 2-7; N-terminus assumed), the negative logarithm of the EC50 (pEC50) was < 5.30 at hAM1 receptor and 10.05 on hAMY3 receptor. The “Max ThT signal (%)” value in series [1] worked out at 2.800%.
For the compound `CC[C@H](C)[C@H](NC(=O)[C@H](CCC(N)=O)NC(=O)[C@H](Cc1c[nH]cn1)NC(=O)[C@H](C)NC(=O)[C@H](CC(C)C)NC(=O)[C@H](CCCNC(=N)N)NC(=O)[C@H](CCC(N)=O)NC(=O)[C@@H](NC(=O)[C@@H](NC(=O)[C@@H]1CSSC[C@H](NC(=O)CN)C(=O)N[C@@H](CCCNC(=N)N)C(=O)N[C@@H]([C@@H](C)O)C(=O)NCC(=O)N[C@@H]([C@@H](C)O)C(=O)N1)[C@@H](C)O)C(C)C)C(=O)N[C@@H](Cc1ccc(O)cc1)C(=O)N[C@@H](CCC(N)=O)C(=O)N[C@@H](Cc1ccccc1)C(=O)N[C@H](C(=O)N[C@@H](CC(=O)O)C(=O)N[C@@H](CCCCN)C(=O)N[C@@H](Cc1ccccc1)C(=O)N[C@@H](CCCCN)C(=O)N[C@@H](CC(=O)O)C(=O)N[C@@H](CC(N)=O)C(=O)N[C@H](C(=O)N[C@@H](C)C(=O)N1CCC[C@H]1C(=O)N[C@@H](CCCNC(=N)N)C(=O)N[C@@H](CO)C(=O)N[C@@H](CCCCN)C(=O)N[C@H](C(=O)N[C@@H](CO)C(=O)N1CCC[C@H]1C(=O)N[C@@H](CCC(N)=O)C(=O)N[C@@H](Cc1ccc(O)cc1)C(=O)N1C[C@H](O)C[C@H]1C(N)=O)[C@@H](C)CC)C(C)C)[C@@H](C)O` [compound 186] (H-GCRTGTCTVQRLAHQIYQFTDKFKDNVAPRSKISPQY[Hyp]-NH2; disulfide 2-7; N-terminus assumed), the pEC50 on hAM1 receptor was < 5.30; on hAMY3 receptor, 10.04. For the same compound, in series [1], the “Max ThT signal (%)” value is 0.600%.
For `CC[C@H](C)[C@H](NC(=O)[C@H](CCC(N)=O)NC(=O)[C@H](Cc1c[nH]cn1)NC(=O)[C@H](C)NC(=O)[C@H](CC(C)C)NC(=O)[C@H](CCCNC(=N)N)NC(=O)[C@H](CCC(N)=O)NC(=O)[C@@H](NC(=O)[C@@H](NC(=O)[C@@H]1CSSC[C@H](NC(=O)CN)C(=O)N[C@@H](CCCNC(=N)N)C(=O)N[C@@H](CCSC)C(=O)NCC(=O)N[C@@H]([C@@H](C)O)C(=O)N1)[C@@H](C)O)C(C)C)C(=O)N[C@@H](Cc1ccc(O)cc1)C(=O)N[C@@H](CCC(N)=O)C(=O)N[C@@H](Cc1ccccc1)C(=O)N[C@H](C(=O)N[C@@H](CC(N)=O)C(=O)N[C@@H](CCCCN)C(=O)N[C@@H](CC(=O)O)C(=O)N[C@@H](CCCCN)C(=O)N[C@@H](CC(=O)O)C(=O)N[C@@H](CC(N)=O)C(=O)N[C@H](C(=O)N[C@@H](C)C(=O)N1CCC[C@H]1C(=O)N[C@@H](CCCNC(=N)N)C(=O)N[C@@H](CO)C(=O)N[C@@H](CCCCN)C(=O)N[C@H](C(=O)N[C@@H](CO)C(=O)N1CCC[C@H]1C(=O)N[C@@H](CCC(N)=O)C(=O)N[C@H](C(=O)N1C[C@H](O)C[C@H]1C(N)=O)[C@@H](C)O)[C@@H](C)CC)C(C)C)[C@@H](C)O` [compound 192] (H-GCRMGTCTVQRLAHQIYQFTNKDKDNVAPRSKISPQT[Hyp]-NH2; disulfide 2-7; N-terminus assumed), in that order: < 5.30, 10.01 and 4.100%.
Taken in the same sequence, the figures for `CC[C@H](C)[C@H](NC(=O)[C@H](CCC(N)=O)NC(=O)[C@H](Cc1c[nH]cn1)NC(=O)[C@H](C)NC(=O)[C@H](CC(C)C)NC(=O)[C@H](CCCNC(=N)N)NC(=O)[C@H](CCC(N)=O)NC(=O)[C@@H](NC(=O)[C@@H](NC(=O)[C@@H]1CSSC[C@H](NC(=O)[C@@H](N)CCCCN)C(=O)N[C@@H](CC(N)=O)C(=O)N[C@@H]([C@@H](C)O)C(=O)N[C@@H](C)C(=O)N[C@@H]([C@@H](C)O)C(=O)N1)[C@@H](C)O)C(C)C)C(=O)N[C@@H](Cc1ccc(O)cc1)C(=O)N[C@@H](CCC(N)=O)C(=O)N[C@H](C(=O)N[C@@H](CC(=O)O)C(=O)N[C@@H](CCCCN)C(=O)N[C@@H](CC(=O)O)C(=O)N[C@@H](CCCCN)C(=O)N[C@@H](CC(=O)O)C(=O)N[C@@H](CC(N)=O)C(=O)N[C@H](C(=O)N[C@@H](C)C(=O)N1CCC[C@H]1C(=O)N1CCC[C@H]1C(=O)N[C@H](C(=O)N[C@@H](CC(N)=O)C(=O)N[C@H](C(=O)NCC(=O)N[C@@H](CO)C(=O)N[C@@H](CC(N)=O)C(=O)NCC(=O)N1C[C@H](O)C[C@H]1C(N)=O)C(C)C)[C@@H](C)O)C(C)C)[C@@H](C)O` [compound 195] (H-KCNTATCTVQRLAHQIYQTDKDKDNVAPPTNVGSNG[Hyp]-NH2; disulfide 2-7; N-terminus assumed) were < 5.30, 9.95 and 6.100%.
For the compound `CC[C@H](C)[C@H](NC(=O)[C@H](CCC(N)=O)NC(=O)[C@H](Cc1c[nH]cn1)NC(=O)[C@H](C)NC(=O)[C@H](CC(C)C)NC(=O)[C@H](CCCNC(=N)N)NC(=O)[C@H](CCC(N)=O)NC(=O)[C@@H](NC(=O)[C@@H](NC(=O)[C@@H]1CSSC[C@H](NC(=O)CN)C(=O)N[C@@H](CCCNC(=N)N)C(=O)N[C@@H](Cc2c[nH]c3ccccc23)C(=O)NCC(=O)N[C@@H]([C@@H](C)O)C(=O)N1)[C@@H](C)O)C(C)C)C(=O)N[C@@H](Cc1ccc(O)cc1)C(=O)N[C@@H](CCC(N)=O)C(=O)N[C@@H](Cc1ccccc1)C(=O)N[C@H](C(=O)N[C@@H](CC(=O)O)C(=O)N[C@@H](CCCCN)C(=O)N[C@@H](CC(=O)O)C(=O)N[C@@H](CCCCN)C(=O)N[C@@H](CC(=O)O)C(=O)N[C@@H](CC(N)=O)C(=O)N[C@H](C(=O)N[C@@H](C)C(=O)N1CCC[C@H]1C(=O)N[C@@H](CO)C(=O)N[C@@H](CO)C(=O)N[C@@H](CCCCN)C(=O)N[C@H](C(=O)N[C@@H](CO)C(=O)N1CCC[C@H]1C(=O)N[C@@H](CCC(N)=O)C(=O)N[C@H](C(=O)N1C[C@H](O)C[C@H]1C(N)=O)[C@@H](C)O)[C@@H](C)CC)C(C)C)[C@@H](C)O` [compound 202] (H-GCRWGTCTVQRLAHQIYQFTDKDKDNVAPSSKISPQT[Hyp]-NH2; disulfide 2-7), the negative-log EC50 (pEC50) is < 5.30 at hAM1 receptor and 9.90 on hAMY3 receptor. Also, the “Max ThT signal (%)” value in series [1] came out at 12.600%.
As to `CC[C@H](C)[C@H](NC(=O)[C@H](CCC(N)=O)NC(=O)[C@H](Cc1c[nH]cn1)NC(=O)[C@H](C)NC(=O)[C@H](CC(C)C)NC(=O)[C@H](CCCNC(=N)N)NC(=O)[C@H](CCC(N)=O)NC(=O)[C@@H](NC(=O)[C@@H](NC(=O)[C@@H]1CSSC[C@H](NC(=O)CN)C(=O)N[C@@H](CCCNC(=N)N)C(=O)N[C@@H]([C@@H](C)O)C(=O)NCC(=O)N[C@@H]([C@@H](C)O)C(=O)N1)[C@@H](C)O)C(C)C)C(=O)N[C@@H](Cc1ccc(O)cc1)C(=O)N[C@@H](CCC(N)=O)C(=O)N[C@@H](Cc1ccccc1)C(=O)N[C@H](C(=O)N[C@@H](CC(=O)O)C(=O)N[C@@H](CCCCN)C(=O)N[C@@H](Cc1ccccc1)C(=O)N[C@@H](CCCCN)C(=O)N[C@@H](CC(=O)O)C(=O)N[C@@H](CC(N)=O)C(=O)N[C@H](C(=O)N[C@@H](C)C(=O)N1CCC[C@H]1C(=O)N[C@@H](CCCNC(=N)N)C(=O)N[C@@H](CO)C(=O)N[C@@H](CCCCN)C(=O)N[C@H](C(=O)N[C@@H](CO)C(=O)N1CCC[C@H]1C(=O)N[C@@H](CCC(N)=O)C(=O)N[C@@H](CCCCN)C(=O)N1C[C@H](O)C[C@H]1C(N)=O)[C@@H](C)CC)C(C)C)[C@@H](C)O` [compound 206] (H-GCRTGTCTVQRLAHQIYQFTDKFKDNVAPRSKISPQK[Hyp]-NH2; disulfide 2-7; N-terminus assumed), the negative-log EC50 (pEC50) is < 5.30 on hAM1 receptor and 9.89 on hAMY3 receptor. The “Max ThT signal (%)” value in series [1] came out at 1.500%.
